Source: patent US11596644B2, “Method for treating post-prandial hypoglycemia” (AVOLYNT, priority 2018, dated 2023)
Marks after values point to notes of the source that are not given here.

Experiments:
[1] = system: STZ-induced diabetic rats; assay: OGTT in STZ-induced diabetic rats (Example 8); type: in vivo, rat; details: for Plasma glucose 0 hr: before dosing; for Plasma glucose 0 hr / Plasma glucose 0.5 hr / Plasma glucose 1 hr / Plasma glucose 2 hr / Plasma glucose 3 hr / ΔAUC (0-1) / ΔAUC (0-1) (% of Control): glucose 2 g/kg, mean ± S.E.M.; for PG elevation after glucose administration: 0.03 and 0.1 mg/kg oral, OGTT 2 g/kg
Experimental: (§1) Study in diabetic rats with glucose. Diabetic rats, induced by intravenous injection of streptozotocin (STZ; 40 mg/kg), were used to determining plasma glucose concentration (PG) 1 hr after oral glucose tolerance test (OGTT). […] Blood was collected via the caudal artery immediately before dosing and 0.5, 1, 2, and 3 hr after dosing. The glucose concentration measurement in plasma used Glucose CII-Test Wako kit (Wako Pure Chemicals Industries, Ltd., Osaka, Japan). The variables used for efficacy assessment were the measurement values of the plasma glucose concentration and the area under the curve for plasma glucose concentration through 1 hr after loading (ΔAUC0-1 hr). The ΔAUC0-1 hr for plasma glucose was calculated based on the trapezoid method using the change of plasma glucose concentrations from pre-value (0 hr).

[2] = system: STZ-induced diabetic rats; assay: Oral mixed-carbohydrate tolerance test (OMCTT) in STZ-induced diabetic rats (Example 9); type: in vivo, rat; details: for Plasma glucose 0 hr: before dosing; for Plasma glucose 0 hr / Plasma glucose 0.5 hr / Plasma glucose 1 hr / Plasma glucose 2 hr / Plasma glucose 3 hr / ΔAUC (0-1) / ΔAUC (0-1) (% of Control): mixed-carbohydrate load, mean ± S.E.M.; for PG elevation after glucose administration: 0.03 and 0.1 mg/kg oral, OMCTT
Experimental: as §1, with “with mixed carbohydrates.” for “with glucose.”, “oral mixed-carbohydrate” for “oral glucose”, “test (OMCTT).” for “test (OGTT).”

[3] = system: healthy adult male volunteers; assay: Repeat dose study in humans, pharmacodynamic parameters after meals; type: in vivo, human; details: repeat dosing
Experimental: Repeat dose study in humans. Oral doses of 2 mg, 5 mg, 10 mg, 20 mg, of mizagliflozin, placebo or miglitol 50 mg per dose three times daily to healthy adult male volunteers by a randomized, placebo-controlled, parallel-group, double-blind comparison method. The dose was orally administered with approximately 150 mL of water once daily immediately before breakfast on Days 1 and 13, and three times daily immediately before every meal on Days 3 to 12.
Changes in the following parameters and ΔAUC from 0 to t* hours after breakfast, lunch, and evening meal were measured: Blood glucose level, Serum insulin concentration, Blood active GLP-1 concentration, and Blood total GIP concentration, where t=0.5, 1, 1.5, 2, and 3 (t=0.5, 1, 1.5, 2, 3, and 5 only after breakfast).
In the miglitol group, hyperglycemia was suppressed after breakfast, lunch, and evening meal, as compared to the placebo group. […] These pharmacodynamic effects more or less persisted during 10-day repeated administration. There was no correlation between plasma mizagliflozin concentration and the pharmacodynamic effects. Measurements in Tables 5-8 were performed on Day 3 after breakfast.

[4] = 50 mg per dose, Day 3 after breakfast

Compound | Plasma glucose 0 hr ([1]; 0.03 mg/kg oral) [mg/dL] | Plasma glucose 0.5 hr ([1]; 0.03 mg/kg oral) [mg/dL] | Plasma glucose 1 hr ([1]; 0.03 mg/kg oral) [mg/dL] | Plasma glucose 2 hr ([1]; 0.03 mg/kg oral) [mg/dL] | Plasma glucose 3 hr ([1]; 0.03 mg/kg oral) [mg/dL] | ΔAUC (0-1) ([1]; 0.03 mg/kg oral) [mg·h/dL] | ΔAUC (0-1) (% of Control) ([1]; 0.03 mg/kg oral) | Plasma glucose 0 hr ([1]; 0.1 mg/kg oral) | Plasma glucose 0.5 hr ([1]; 0.1 mg/kg oral) | Plasma glucose 1 hr ([1]; 0.1 mg/kg oral) | Plasma glucose 2 hr ([1]; 0.1 mg/kg oral) | Plasma glucose 3 hr ([1]; 0.1 mg/kg oral) | ΔAUC (0-1) ([1]; 0.1 mg/kg oral) | ΔAUC (0-1) (% of Control) ([1]; 0.1 mg/kg oral) | PG elevation after glucose administration [1] | Plasma glucose 0 hr ([2]; 0.03 mg/kg oral) [mg/dL] | Plasma glucose 0.5 hr ([2]; 0.03 mg/kg oral) | Plasma glucose 1 hr ([2]; 0.03 mg/kg oral) [mg/dL] | Plasma glucose 2 hr ([2]; 0.03 mg/kg oral) [mg/dL] | PG elevation after glucose administration [2] | further results
Cc1cc(OCCCN)ccc1Cc1c(O[C@@H]2O[C@H](CO)[C@@H](O)[C@H](O)[C@H]2O)n[nH]c1C(C)C [KGA-2586] | 128 ± 4 | 351 ± 22 | 350 ± 32 | 154 ± 20 | 86 ± 4 | 167 ± 20 | 86 ± 10 % of Control | 121 ± 8 ^ mg/dL | 236 ± 18^z mg/dL | 257 ± 24^x mg/dL | 193 ± 21^x mg/dL | 105 ± 12^ mg/dL | 91 ± 11^y mg · dL^−1 · hr | 47 ± 6^y % of Control | inhibited PG elevation after glucose administration dose dependently | 118 ± 8 | 269 ± 5^y mg/dL | 235 ± 8 | 112 ± 11 | inhibited PG elevation after glucose administration dose dependently | Plasma glucose 3 hr ([2]; 0.03 mg/kg oral): 108 ± 10 mg/dL; ΔAUC (0-1) ([2]; 0.03 mg/kg oral): 105 ± 4^x mg · dL^−1 · hr; ΔAUC (0-1) (% of Control) ([2]; 0.03 mg/kg oral): 64 ± 2^x % of Control; Plasma glucose 0 hr ([2]; 0.1 mg/kg oral): 126 ± 7^ mg/dL; Plasma glucose 0.5 hr ([2]; 0.1 mg/kg oral): 213 ± 11^z mg/dL; Plasma glucose 1 hr ([2]; 0.1 mg/kg oral): 215 ± 13 mg/dL; Plasma glucose 2 hr ([2]; 0.1 mg/kg oral): 144 ± 12 mg/dL; Plasma glucose 3 hr ([2]; 0.1 mg/kg oral): 108 ± 8^ mg/dL; ΔAUC (0-1) ([2]; 0.1 mg/kg oral): 65 ± 6^z mg · dL^−1 · hr; ΔAUC (0-1) (% of Control) ([2]; 0.1 mg/kg oral): 40 ± 4^z % of Control
Cc1cc(OCCCNCC(N)=O)ccc1Cc1c(O[C@@H]2O[C@H](CO)[C@@H](O)[C@H](O)[C@H]2O)n[nH]c1C(C)C [KGA-2588] | 137 ± 6 | 351 ± 29 | 363 ± 48 | 185 ± 25 | 101 ± 4 | 163 ± 23 | 84 ± 12 % of Control | 128 ± 8 ^ mg/dL | 249 ± 32^y mg/dL | 286 ± 51^ mg/dL | 221 ± 33^x mg/dL | 145 ± 5^z mg/dL | 100 ± 23^x mg · dL^−1 · hr | 51 ± 12^x % of Control | inhibited PG elevation after glucose administration dose dependently | 120 ± 3 | 291 ± 22 mg/dL | 248 ± 17 | 109 ± 7 | inhibited PG elevation after glucose administration dose dependently | Plasma glucose 3 hr ([2]; 0.03 mg/kg oral): 100 ± 6 mg/dL; ΔAUC (0-1) ([2]; 0.03 mg/kg oral): 117 ± 14 mg·h/dL; ΔAUC (0-1) (% of Control) ([2]; 0.03 mg/kg oral): 72 ± 9 % of Control; Plasma glucose 0 hr ([2]; 0.1 mg/kg oral): 123 ± 8 mg/dL; Plasma glucose 0.5 hr ([2]; 0.1 mg/kg oral): 258 ± 25^x mg/dL; Plasma glucose 1 hr ([2]; 0.1 mg/kg oral): 224 ± 23 mg/dL; Plasma glucose 2 hr ([2]; 0.1 mg/kg oral): 132 ± 4 mg/dL; Plasma glucose 3 hr ([2]; 0.1 mg/kg oral): 114 ± 6 mg/dL; ΔAUC (0-1) ([2]; 0.1 mg/kg oral): 93 ± 13 mg·h/dL; ΔAUC (0-1) (% of Control) ([2]; 0.1 mg/kg oral): 57 ± 8 % of Control
Cc1cc(OCCCNCCC(N)=O)ccc1Cc1c(O[C@@H]2O[C@H](CO)[C@@H](O)[C@H](O)[C@H]2O)n[nH]c1C(C)C [KGA-2727] | 120 ± 9 | 354 ± 34 | 342 ± 42 | 155 ± 24 | 85 ± 6 | 172 ± 21 | 89 ± 11 % of Control | 116 ± 6 ^ mg/dL | 233 ± 15^y mg/dL | 262 ± 19^ mg/dL | 194 ± 12^x mg/dL | 102 ± 16^ mg/dL | 95 ± 14^y mg · dL^−1 · hr | 49 ± 7^y % of Control | inhibited PG elevation after glucose administration dose dependently | 114 ± 7 | 317 ± 28 mg/dL | 250 ± 30 | 114 ± 5 | inhibited PG elevation after glucose administration dose dependently | Plasma glucose 3 hr ([2]; 0.03 mg/kg oral): 104 ± 7 mg/dL; ΔAUC (0-1) ([2]; 0.03 mg/kg oral): 135 ± 20 mg·h/dL; ΔAUC (0-1) (% of Control) ([2]; 0.03 mg/kg oral): 83 ± 12 % of Control; Plasma glucose 0 hr ([2]; 0.1 mg/kg oral): 124 ± 8 mg/dL; Plasma glucose 0.5 hr ([2]; 0.1 mg/kg oral): 240 ± 17^y mg/dL; Plasma glucose 1 hr ([2]; 0.1 mg/kg oral): 248 ± 29 mg/dL; Plasma glucose 2 hr ([2]; 0.1 mg/kg oral): 133 ± 4 mg/dL; Plasma glucose 3 hr ([2]; 0.1 mg/kg oral): 106 ± 9 mg/dL; ΔAUC (0-1) ([2]; 0.1 mg/kg oral): 89 ± 12 mg·h/dL; ΔAUC (0-1) (% of Control) ([2]; 0.1 mg/kg oral): 55 ± 7 % of Control
CC(C)c1[nH]nc(O[C@@H]2O[C@H](CO)[C@@H](O)[C@H](O)[C@H]2O)c1Cc1ccc(CCCC(=O)NC(C)(C)C(=O)N2CCNCC2)cc1 [KGA-2891] |  |  |  |  |  |  |  |  |  |  |  |  |  |  | inhibited PG elevation after glucose administration dose dependently |  |  |  |  | inhibited PG elevation after glucose administration dose dependently | 
OCCN1C[C@H](O)[C@@H](O)[C@H](O)[C@H]1CO [Miglitol, miglitol, reference compound] |  |  |  |  |  |  |  |  |  |  |  |  |  |  |  |  |  |  |  |  | AUC 0-5 GIP [3, 4]: 897.03 pg·h/mL; AUC 0-5 GLP-1 (active) [3, 4]: 20.5 pmol·h/L; AUC 0-5 Insulin [3, 4]: 138.33 uU*h/ml; AUC 0-5 glucose [3, 4]: 543.7 mg·h/dL; GIP (peak) [3, 4]: 235 pg/mL; GLP-1 (active) (peak) [3, 4]: 6.21 pmol/L; Glucose (peak) [3, 4]: 121.6 mg/dL; Insulin (peak) [3, 4]: 40.4 uU/ml; Time (h) to peak, GIP [3, 4]: 3 h; Time (h) to peak, GLP-1 (active) [3, 4]: 0.5 h; Time (h) to peak, glucose [3, 4]: 1.5 h; Time (h) to peak, insulin [3, 4]: 2 h; active GLP-1 concentration ([3]; healthy adult male volunteers): a tendency toward increase; hyperglycemia after breakfast, lunch, and evening meal ([3]; healthy adult male volunteers): suppressed; insulin secretion ([3]; healthy adult male volunteers): inhibition of insulin secretion; total GIP concentration ([3]; healthy adult male volunteers): inhibition of increase in total GIP concentration; total GLP-1 concentration ([3]; healthy adult male volunteers): an increase in total GLP-1 concentration
